Reference: patent US9328386B2, “Markers for susceptibility to an inhibitor of an Src-family kinase” (Evotec (München) GmbH, priority 2011, dated 2016)

Assays:
H1395 NSCLC cell line = experiment: Cellular growth inhibition (CellTiter Glo viability assay); assay type: cell-based; conditions: Homo sapiens
HCC4006 NSCLC cell line = experiment: as above; assay type: cell-based; conditions: Homo sapiens
PTK2B = molecular target: T1, PTK2B (Homo sapiens, UniProt Q14289); experiment: KinAffinity target profiling; assay type: binding; conditions: PC9 cell extract, read-out: KD_free
T1 construct: PC9 cells were lysed in buffer; endogenous in cells; host or cells: PC9 (NSCLC) cell extract
Method: For in vitro association experiments 4×10^8 PC9 cells were lysed in buffer containing 20 mM HEPES pH 7.5, 400 mM NaCl. 0.25% Triton X-100, 1 mM DTT, 1.5 mM MgCl2, 0.5 mM ZnCl2, 0.5 mM EDTA, 0.5 mM EGTA, 1600 U/ml Benzonase plus additives (10 μg/ml aprotinin, 10 μg/ml leupeptin, 1 mM PMSF, 1 mM Na3VO4, 10 mM NaF). After centrifugation the supernatant was adjusted to 1 M NaCl, filtered through a 0.45 μm celluloseacetate filter and subjected to KinAffinity™ beads representing several different broad-spectrum kinase inhibitors immobilized on Sepharose beads. For each in vitro association experiment 750 μl cell extract (4 mg/ml) were incubated with 30 μl KinAffinity™ beads for 2.5 h at 4° C. […] Alternatively, the inhibitor (3 nM, 30 nM, 100 nM, 300 nM, 3 μM) and KinAffinity™ beads were added simultaneously to the cell extract. […] The extracted peptides were derivatized for quantitative mass spectrometry using the TMT 6-plex reagent according to the manufactures instructions and were subsequently combined for mass spectrometric analysis.
Mass spectrometric analysis of the labeled and combined peptide fractions was carried out by on-line nanoLC-MS/MS. The samples were loaded directly by an Agilent 1200 nanoflow system (Agilent Technologies) on a 15 cm fused silica emitter (New Objective) packed in-house with reversed phase material (Reprusil-Pur C18-AQ, 3 μm, Dr. Maisch GmbH) at a flow of […]. The bound peptides were eluted by a gradient from 2% to 40% solvent B (80% ACN, 0.5% HOAc) at a flow of […] and sprayed directly into an LTQ-Orbitrap XL mass spectrometer (Thermo Fischer Scientific) at a spray voltage of 2 kV applying a nano electrospray ion source (ProxeonBiosystems). The mass spectrometer was operated in the positive ion mode and a data dependent switch between MS and MS/MS acquisition. To improve mass accuracy in the MS mode the lock-mass option was enabled. Full scans were acquired in the orbitrap at a resolution R=60 000 and a target value of 1 000 000 charges. […] The resulting fragmentation spectra were also recorded in the linear ion trap.
Regarding the search parameters, the minimal peptide length was set to 6 amino acids, trypsin was selected as proteolytic enzyme and maximally 2 missed cleavage sites were allowed. […] The maximal mass deviation of precursor and fragment masses was set to 7 ppm and 0.5 Da. A false discovery rate (FDR) of 0.01 was selected for proteins and peptides and a posterior error propability (PEP) below or equal to 0.1 for each MS/MS spectrum was required. The intensities of the TMT reporter ions were read from the msm files. For each protein group identified by MaxQuant the MS/MS spectra corresponding to razor peptides of this protein group were collected, and the reporter ion intensities were averaged over all MS/MS spectra. Finally the sigmoid model y=1−a/(1+(x/b)^c) was fitted to the binding values for each protein group. Similarly the model y=a/(1+(x/b)^c) was fitted to the competition values.

H2077 NSCLC cell line = experiment: Cellular growth inhibition (CellTiter Glo viability assay); assay type: cell-based; conditions: Homo sapiens, H2077
H157 NSCLC cell line = experiment: as above; assay type: cell-based; conditions: Homo sapiens
HCC2279 NSCLC cell line = experiment: as above; assay type: cell-based; conditions: Homo sapiens, HCC2279
HCC78 NSCLC cell line = experiment: as above; assay type: cell-based; conditions: Homo sapiens
H322M NSCLC cell line = experiment: as above; assay type: cell-based; conditions: Homo sapiens, NCI-H322M
H2009 NSCLC cell line = experiment: as above; assay type: cell-based; conditions: Homo sapiens
H1648 NSCLC cell line = experiment: as above; assay type: cell-based; conditions: Homo sapiens
HCC366 NSCLC cell line = experiment: as above; assay type: cell-based; conditions: Homo sapiens
H1666 NSCLC cell line = experiment: as above; assay type: cell-based; conditions: Homo sapiens
LouNH91 NSCLC cell line = experiment: as above; assay type: cell-based; conditions: Homo sapiens, LouNH91
H2172 NSCLC cell line = experiment: as above; assay type: cell-based; conditions: Homo sapiens
PC9 NSCLC cell line = experiment: as above; assay type: cell-based; conditions: Homo sapiens, PC9
H520 NSCLC cell line = experiment: as above; assay type: cell-based; conditions: Homo sapiens
Calu6 NSCLC cell line = experiment: as above; assay type: cell-based; conditions: Homo sapiens
H460 NSCLC cell line = experiment: as above; assay type: cell-based; conditions: Homo sapiens
H2030 NSCLC cell line = experiment: as above; assay type: cell-based; conditions: Homo sapiens
[1] = read-out: Sensitivity Saracatinib
[2] = 96 hours of treatment, read-out: GI50

T1 sequence (Q14289 whole entry): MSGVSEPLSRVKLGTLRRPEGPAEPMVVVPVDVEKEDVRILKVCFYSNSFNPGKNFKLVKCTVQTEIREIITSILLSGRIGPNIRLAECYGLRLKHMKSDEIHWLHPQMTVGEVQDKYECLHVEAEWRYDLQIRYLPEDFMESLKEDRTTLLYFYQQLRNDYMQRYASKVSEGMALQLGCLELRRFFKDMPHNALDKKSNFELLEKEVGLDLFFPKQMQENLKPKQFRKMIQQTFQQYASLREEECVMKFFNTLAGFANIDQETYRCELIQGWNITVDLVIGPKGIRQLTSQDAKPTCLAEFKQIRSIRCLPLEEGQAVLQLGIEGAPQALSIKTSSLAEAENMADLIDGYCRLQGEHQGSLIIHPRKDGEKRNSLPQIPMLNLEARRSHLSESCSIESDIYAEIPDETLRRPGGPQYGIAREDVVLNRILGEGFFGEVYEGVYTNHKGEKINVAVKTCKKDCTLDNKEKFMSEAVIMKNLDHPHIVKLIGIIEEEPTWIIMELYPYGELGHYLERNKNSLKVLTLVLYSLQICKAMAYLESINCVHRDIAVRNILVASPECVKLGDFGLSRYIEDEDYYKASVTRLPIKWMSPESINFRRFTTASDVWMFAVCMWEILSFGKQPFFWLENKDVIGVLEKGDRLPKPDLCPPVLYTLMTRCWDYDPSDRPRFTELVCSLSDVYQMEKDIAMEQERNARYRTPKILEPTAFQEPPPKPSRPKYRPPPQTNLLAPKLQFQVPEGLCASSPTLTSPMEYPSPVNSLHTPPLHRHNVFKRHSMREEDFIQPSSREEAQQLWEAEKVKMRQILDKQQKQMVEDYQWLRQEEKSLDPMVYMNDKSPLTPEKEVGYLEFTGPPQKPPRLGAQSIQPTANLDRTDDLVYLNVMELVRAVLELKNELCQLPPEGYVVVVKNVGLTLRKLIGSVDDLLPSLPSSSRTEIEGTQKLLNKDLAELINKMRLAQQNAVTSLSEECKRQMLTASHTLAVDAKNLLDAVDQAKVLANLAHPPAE

- IC50 (H1395 NSCLC cell line; NCI-H1395, read-out: Sensitivity Saracatinib): > 3.5 µM
- GI50 (H1395 NSCLC cell line; NCI-H1395, H1395, 96 hours of treatment, read-out: GI50): 31.7 µM
- IC50 (HCC4006 NSCLC cell line; HCC4006, read-out: Sensitivity Saracatinib): < 3.5 µM
- GI50 (HCC4006 NSCLC cell line; HCC4006, 96 hours of treatment, read-out: GI50): 0.132 µM
- Kd (PTK2B): 11.4 µM
- IC50 (H2077 NSCLC cell line; [1]): > 3.5 µM
- GI50 (H2077 NSCLC cell line; [2]): 14.8 µM
- IC50 (H157 NSCLC cell line; NCI-H157, read-out: Sensitivity Saracatinib): > 3.5 µM
- GI50 (H157 NSCLC cell line; NCI-H157, H157, 96 hours of treatment, read-out: GI50): 13.9 µM
- IC50 (HCC2279 NSCLC cell line; [1]): < 3.5 µM
- GI50 (HCC2279 NSCLC cell line; [2]): 0.66 µM
- IC50 (HCC78 NSCLC cell line; HCC78, read-out: Sensitivity Saracatinib): < 3.5 µM
- GI50 (HCC78 NSCLC cell line; HCC78, 96 hours of treatment, read-out: GI50): 0.267 µM
- IC50 (H322M NSCLC cell line; [1]): < 3.5 µM
- GI50 (H322M NSCLC cell line; H322M, 96 hours of treatment, read-out: GI50): 0.876 µM
- IC50 (H2009 NSCLC cell line; NCI-H2009, read-out: Sensitivity Saracatinib): > 3.5 µM
- GI50 (H2009 NSCLC cell line; NCI-H2009, H2009, 96 hours of treatment, read-out: GI50): 4.31 µM
- IC50 (H1648 NSCLC cell line; NCI-H1648, read-out: Sensitivity Saracatinib): < 3.5 µM
- GI50 (H1648 NSCLC cell line; NCI-H1648, H1648, 96 hours of treatment, read-out: GI50): 1.51 µM
- IC50 (HCC366 NSCLC cell line; HCC366, read-out: Sensitivity Saracatinib): < 3.5 µM
- GI50 (HCC366 NSCLC cell line; HCC366, 96 hours of treatment, read-out: GI50): 1.24 µM
- IC50 (H1666 NSCLC cell line; NCI-H1666, read-out: Sensitivity Saracatinib): < 3.5 µM
- GI50 (H1666 NSCLC cell line; NCI-H1666, H1666, 96 hours of treatment, read-out: GI50): 2.2 µM
- IC50 (H2172 NSCLC cell line; NCI-H2172, read-out: Sensitivity Saracatinib): > 3.5 µM
- GI50 (H2172 NSCLC cell line; NCI-H2172, H2172, 96 hours of treatment, read-out: GI50): 28.5 µM
- IC50 (PC9 NSCLC cell line; PC-9, read-out: Sensitivity Saracatinib): < 3.5 µM
- GI50 (PC9 NSCLC cell line; [2]): 0.147 µM
- IC50 (H520 NSCLC cell line; NCI-H520, read-out: Sensitivity Saracatinib): > 3.5 µM
- GI50 (H520 NSCLC cell line; NCI-H520, H520, 96 hours of treatment, read-out: GI50): 4.56 µM
- IC50 (Calu6 NSCLC cell line; Calu-6, read-out: Sensitivity Saracatinib): > 3.5 µM
- GI50 (Calu6 NSCLC cell line; Calu-6, 96 hours of treatment, read-out: GI50): 30 µM
- IC50 (H460 NSCLC cell line; NCI-H460, read-out: Sensitivity Saracatinib): > 3.5 µM
- GI50 (H460 NSCLC cell line; NCI-H460, H460, 96 hours of treatment, read-out: GI50): 12.1 µM
- IC50 (H2030 NSCLC cell line; NCI-H2030, read-out: Sensitivity Saracatinib): < 3.5 µM
- GI50 (H2030 NSCLC cell line; NCI-H2030, H2030, 96 hours of treatment, read-out: GI50): 0.443 µM
SMILES: CN1CCN(CCOc2cc(OC3CCOCC3)c3c(Nc4c(Cl)ccc5c4OCO5)ncnc3c2)CC1 [saracatinib, N-(5-Chloro-1,3-benzodioxol-4-yl)-7-[2-(4-methyl-1-piperazinyl)ethoxy]-5-[(tetrahydro-2H-pyran-4-yl)oxy]-4-quinazolinamine]
- IC50 (LouNH91 NSCLC cell line; LOU-NH91, read-out: Sensitivity Saracatinib): < 3.5 µM
- GI50 (LouNH91 NSCLC cell line; LOU-NH91, 96 hours of treatment, read-out: GI50): 1.18 µM
